Measurements as given in article PMC8518537, “N‐(Anilinoethyl)amide Melatonergic Ligands with Improved Water Solubility and Metabolic Stability” (Chemmedchem, 2021).
≈ marks a conversion by molar mass, not a printed value. Read-outs that look alike come from different tables or passages of the source.

Tests used:
[1] = target: T1, human MT1 receptors (Homo sapiens, UniProt P48039); assay: Radioligand binding, 2-[125I]iodomelatonin competition at MT1; conditions: cloned human MT1 in CHO cells; from IC50 by Cheng-Prusoff; mean±SD of three determinations; read-out: MT1 K i
T1 sequence (P48039 whole entry): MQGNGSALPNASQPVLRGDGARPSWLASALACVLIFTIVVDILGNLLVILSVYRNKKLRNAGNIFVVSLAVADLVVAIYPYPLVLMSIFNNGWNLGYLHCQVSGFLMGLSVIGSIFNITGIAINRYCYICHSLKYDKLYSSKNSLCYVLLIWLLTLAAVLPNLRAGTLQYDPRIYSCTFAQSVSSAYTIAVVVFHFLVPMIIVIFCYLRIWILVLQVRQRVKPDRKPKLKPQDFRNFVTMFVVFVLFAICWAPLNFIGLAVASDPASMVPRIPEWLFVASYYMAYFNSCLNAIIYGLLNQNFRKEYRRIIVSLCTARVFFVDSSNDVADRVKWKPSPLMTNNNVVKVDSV
Method: (§3) After incubation, the % of radioligand binding inhibition was determined via a scintillation counting method. The radioligand binding experiments were performed in triplicate. IC50 values were determined by nonlinear regression analysis of the competition curves using Hill equation curve fitting. The pK i values were calculated from the IC50 values in accordance with the Cheng‐Prusoff equation.[28]

[2] = Thermodynamic solubility, shake flask method; format: physicochemical; conditions: thermodynamic from solid, room temperature overnight, mean±SD, triplicate
Method: Thermodynamic solubility values were measured in two different buffers (pH 1.0; pH 7.4) by the shake flask method.[65] 1 mg of each compound was placed in 1 mL of appropriate buffer and shaken at room temperature overnight. The resulting suspension was centrifuged (10 min, 10000 g, 20 °C) and the supernatant analyzed by HPLC‐UV. Solubility values were interpolated from calibration curves prepared from concentrated DMSO stock solutions of each compound. Reported solubility values are the mean of three measurements±standard deviation.
It consisted of a LC‐10ADvp solvent delivery module, a 20 μL Rheodyne sample injector (Rheodyne LLC, Rohnert Park, CA, USA) and a SPD‐10Avp UV‐VIS detector. PeakSimple 2.83 software was employed for data acquisition and HPLC peak integration. […] Elution conditions were optimized for each compound at a flow rate of 1 mL min^−1 employing mobile phases consisting of water and acetonitrile at different percentages, while UV detection was set at λ = 254 nm.

[3] = Metabolic stability in rat liver microsomes; format: in vitro ADME; conditions: for CLi Rat LM (intrinsic clearance) / half-life at 5 μM: rat liver microsomes 1 mg protein/mL, 5 μM compound, mean±SD; for CLi Rat LM (intrinsic clearance): 37 °C; for half-life at 5 μM: NADPH-regenerating system, pH 7.4, 37 °C, read-out: t 1/2 Rat LM
Method: (§4) Each compound (final concentration: 5 μM) was incubated in the presence of rat or human liver microsomes (final concentration: 1 mg protein/mL) and of a NADPH‐regenerating system (final concentrations: 2 mM NADP^+, 10 mM glucose‐6‐phosphate, 0.4 U mL^−1 glucose‐6‐phosphate dehydrogenase, 5 mM MgCl2) in a 10 mM Phosphate Buffered Saline (PBS) solution, pH 7.4, at 37 °C. Compound was added after a 10 min pre‐incubation at 37 °C and. at stated time points, depending on compound kinetics, sample aliquots were withdrawn, metabolic reaction was quenched by acetonitrile addition (1 : 2), and after a centrifugation step (9000 g, 10 min, 4 °C) the supernatant was analyzed by HPLC‐UV‐VIS.
(§5) Apparent half‐lives (t1/2 in min) for the metabolic clearance of compounds were calculated from the pseudo first‐order rate constants (k) obtained by linear regression of the log chromatographic peak area versus time plots and are reported as means of three experiments±standard deviation. Intrinsic clearance (CLi) values of the compounds were calculated using the following equation: CLi (μL×min^−1×mg protein^−1)=k×V where V (μL×mg protein^−1)=incubation volume/mg protein added.
(§6) Pooled rat and human liver microsomes (20 mg/mL) were supplied by BD Biosciences (BD Biosciences, Woburn, MA, USA). Acetonitrile and methanol were HPLC grade and were supplied by Sigma‐Aldrich (Sigma‐Aldrich srl, Milan, Italy). Water was freshly bidistilled before use. All other reagents were purchased in the highest purity available.
(§7) PeakSimple 2.83 software was employed for data acquisition and HPLC peak integration. HPLC columns were a RP‐C18 Supelco Discovery (Supelco, Bellefonte, PA, USA), 5 μm, 150×4.6 mm i.d. for all compounds except 13, and a Phenomenex Gemini, 5 μm, 150×4.6 mm i.d. for compound 13 (Phenomenex). Elution conditions were optimized for each compound at a flow rate of 1 mL min^−1 employing mobile phases consisting of water and acetonitrile at different percentages, while UV detection was set at λ = 254 nm. For compound 13, the mobile phase consisted of a 10 mM ammonium acetate buffer pH 7.0 and methanol and the UV detection was set at λ = 281 nm.

[4] = Experimental lipophilicity, shake-flask n-octanol/water; format: physicochemical; conditions: n-octanol/50 mM MOPS buffer pH 7.4, 25±1 °C, mean±SD of three, read-out: Log D oct,7.4
Method: Chosen buffer was 50 mM zwitterionic MOPS (3‐morpholinopropanesulfonic acid), pH 7.4 to avoid ionic couple partitioning, with ionic strength adjusted to 0.15 M by KCl addition. Compounds, after partitioning overnight, and dilution of both phases with methanol, were dosed in the HPLC‐UV system, as detailed below. Reported log D oct,7.4 values are the mean of three measurements±standard deviation.
HPLC columns were a RP‐C18 Supelco Discovery (Supelco, Bellefonte, PA, USA), 5 μm, 150×4.6 mm i.d. for all compounds except 13, and a Phenomenex Gemini, 5 μm, 150×4.6 mm i.d. for compound 13 (Phenomenex). Elution conditions were optimized for each compound at a flow rate of 1 mL min^−1 employing mobile phases consisting of water and acetonitrile at different percentages, while UV detection was set at λ = 254 nm. For compound 13, the mobile phase consisted of a 10 mM ammonium acetate buffer pH 7.0 and methanol and the UV detection was set at λ = 281 nm.

[5] = Metabolic stability in human liver microsomes; format: in vitro ADME; conditions: for CLi Human LM (intrinsic clearance) / half-life at 5 μM: human liver microsomes 1 mg protein/mL, 5 μM compound, mean±SD; for CLi Human LM (intrinsic clearance): 37 °C; for half-life at 5 μM: NADPH-regenerating system, pH 7.4, 37 °C, read-out: t 1/2 Human LM
Method: as §4, §5, §6, §7

[6] = target: T2, human MT2 receptors (Homo sapiens, UniProt P49286); assay: Radioligand binding, 2-[125I]iodomelatonin competition at MT2; conditions: cloned human MT2 in CHO cells; from IC50 by Cheng-Prusoff; mean±SD of three determinations; read-out: MT2 K i
T2 sequence (P49286 1-362): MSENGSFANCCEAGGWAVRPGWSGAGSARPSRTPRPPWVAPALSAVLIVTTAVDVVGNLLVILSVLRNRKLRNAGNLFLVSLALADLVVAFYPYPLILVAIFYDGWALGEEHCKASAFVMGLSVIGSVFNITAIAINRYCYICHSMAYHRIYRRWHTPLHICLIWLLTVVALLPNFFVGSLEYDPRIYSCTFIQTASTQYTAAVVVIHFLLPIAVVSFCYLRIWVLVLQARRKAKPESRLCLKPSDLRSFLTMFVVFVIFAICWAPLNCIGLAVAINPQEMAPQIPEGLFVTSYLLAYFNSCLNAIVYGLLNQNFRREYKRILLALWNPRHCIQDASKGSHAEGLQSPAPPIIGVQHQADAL
Method: as §3

[7] = target: T2, human MT2 receptors; assay: Agonist activity at MT2, cAMP assay; format: cell-based; conditions: for EC50: cAMP assay, CHO cells expressing human MT2, mean±SD, triplicate; for functional profile (intrinsic activity): cAMP functional assay at MT2 (with MT1 cell impedance data of Table 3); for Emax: read-out: MT2 E max
Method: (§1) The in vitro pharmacology experiments were conducted at Cerep (Celle‐Lévescault, France) following radioligand binding and cellular functional assays developed elsewhere.[60, 61, 62]
(§2) To define the functional activity of the new compounds, cellular functional assays were performed on CHO cells stably expressing human MT1 or MT2 receptors. Agonist activity at MT1 receptors was evaluated using a cell impedance assay measured by cellular dielectric spectroscopy,[62] and at MT2 receptors with an cAMP assay, measured by a fluorometric method.[61] The EC50 values were determined by non‐linear regression analysis of the concentration‐response curves. Experiments were performed in triplicate.

[8] = target: T1, human MT1 receptors; assay: Agonist activity at MT1, cell impedance assay (cellular dielectric spectroscopy); format: cell-based; conditions: for EC50: cell impedance assay, CHO cells expressing human MT1, mean±SD, triplicate; for Emax: read-out: MT1 E max
Method: as §1, §2

[9] = In vivo pharmacokinetic study in rat plasma; design: species or system Sprague‐Dawley rats; conditions: for Vd / bioavailability / AUC / Cmax / clearance / half-life: male; for Vd / bioavailability: plasma; for Vd / bioavailability / F (oral bioavailability): rat; for Vd: read-out: V ss; for bioavailability / F (oral bioavailability): PO 40 mg kg^−1 vs IV 5 mg kg^−1; for bioavailability: read-out: F (oral bioavailability); for AUC / Cmax / clearance / half-life: rat plasma
Method: To evaluate the in vivo behavior of the two melatonergic ligands 14 and 19, a preliminary pharmacokinetic (PK) study was carried out in male Sprague‐Dawley rats. The compounds were administered as intravenous bolus (IV) or by oral gavage (PO) at doses of 5 or 40 mg kg^−1, respectively. Quantitative analysis was carried out by UPLC/MS/MS and the plasma concentration profiles are shown in Figure 3, while the main PK parameters are listed in Table 4.
The in vivo pharmacokinetic experiments were conducted at NiKem Research (Baranzate – Milan – Italy). PK studies were performed using Sprague‐Dawley CD (albino) male rats (7–9 weeks‐old, weight 160–200 grams, Charles River Lab. Italia, Calco). Animals were housed under standard conditions and had free access to water and standard laboratory rodent diet. Care and husbandry of animals were in conformity with the institutional guidelines, in compliance with national and international laws and policies (EEC Council Directive 86/609, OJL 358 m, 1, Dec. 122, 1987; NIH Guide for the care and Use of Laboratory Animals, NIH Publication No. 86–23, 1985). The compounds were dissolved in water containing 3 % DMSO and 20 % Encapsin (and a stechiometric amount of HCl for 14) at a concentration of 2.5 mg mL^−1 for the IV (bolus) dose, or in water containing 5 % DMSO and 10 % encapsin (and a stechiometric amount of HCl for 14) at a concentration of 4 mg mL^−1 for PO (gavage) dose. Rats were randomly assigned to four treatment groups (n=3) and received a single IV bolus dose (5 mg kg^−1) or a single oral administration (40 mg kg^−1) through oral gavage of compound 14 or 19. Serial blood samples ([…]) were collected from caudal vein at 5, 30, 60, 120, 480 and 1440 min after IV injection, or at 15, 30, 60, 120, 480 and 1440 min after PO administration. Blood samples were collected in heparinized eppendorfs (Heparin Vister 5000 U.I./mL_Marvecs Pharma), gently mixed and placed on ice; then blood was centrifuged (3500×g, at 4 °C for 15 min), the plasma was collected and immediately frozen at −80 °C until submission to UPLC/MS/MS analysis. For the sample preparation, 100 μL of plasma spiked with 5 μL of internal standard (I.S.; 19 for compound 14 and 14 for compound 19; 2.5 μg mL^−1;) were added to a SW96 deep well plate (Waters) containing 300 μL of acetonitrile. The plate was shaken for 10 min and then centrifuged at 3000 rpm for 15 min. UPLC/MS/MS analyses were performed on an Acquity UPLC, coupled with a sample organizer and interfaced with a triple quadrupole Premiere XE (Waters, Milford, USA). LC runs (inj. vol. 5 μL) were carried out at 50 °C on Acquity BEH C18 columns (1.7 μm, 2.1×50 mm) at a flow rate of 0.45 mL min^−1. Mobile phases consisted of a phase A (water) and a phase B (0.1 % formic acid in acetonitrile). The column was conditioned with 2 % phase B for 0.2 min, then brought to 100 % phase B within 0.6 min and maintained at these conditions for 1.1 min. Analyses were carried out using a positive electrospray ionization [ESI(+)] interface in multiple reaction monitoring (MRM) mode. Capillary 3.5 Kv; extractor 3 V; source T 140 °C, desolvation T 450 °C. Transitions: for compound 14 Q1/Q3 315.2/86, CV 14, CE16+315.2/238 CV 14, CE19; for I.S. (compound 19): 301.1/86 CV 14 CE16; LLOQ: 1 ng ml^−1. Transitions: for compound 19 Q1/Q3: 301.1/86CV 14 CE16; for I.S. (compound 14) 315.2/238CV 14, CE19; LLOQ: 1 ng mL^−1. Pharmacokinetic analysis was performed by non‐compartmental analysis (NCA) using the WinNonlin 5.1 software (Pharsight, Mountain View, CA, USA. Absolute oral bioavailability (F) was calculated by linear trapezoidal rule using the relationship: F=[doseIV×AUCoral o‐∞/doseoral×AUCIV o‐∞]×100.

[10] = buffer pH 1.0, simulated gastric fluid, pH 1.0 buffer, read-out: Solubility pH 1.0
[11] = buffer pH 7.4, aqueous buffer, pH 7.4 buffer, read-out: Solubility pH 7.4
[12] = Sprague-Dawley, IV bolus 5 mg kg^−1
[13] = Sprague-Dawley, PO gavage 40 mg kg^−1
[14] = Sprague-Dawley CD, IV bolus 5 mg kg^−1
[15] = Sprague-Dawley CD, PO gavage 40 mg kg^−1

SMILES | Ki [1] [nM] | solubility [2, 10] [µg/mL] | solubility [2, 11] [µg/mL] | CLi Rat LM (intrinsic clearance) [3] [μL min^−1 mg prot^−1] | half-life at 5 μM [3] [min] | melting point [°C] | logD ([4]; n-octanol/water (MOPS buffer)) | CLi Human LM (intrinsic clearance) [5] [μL min^−1 mg prot^−1] | half-life at 5 μM [5] [min] | Ki [6] [nM] | EC50 [7] [nM] | functional profile (intrinsic activity) [7] | Emax [7] [%] | EC50 [8] [nM] | Emax [8] [%] | F (oral bioavailability) [9] | other results
CCCNC(=O)NCCN(c1ccccc1)c1cccc(OC)c1 [Compound 6 c, 1‐{2‐[(3‐Methoxyphenyl)phenylamino]ethyl}‐3‐propylurea] | 57 ± 0.1 | 17.7 ± 0.9 (≈ 54.1 µM) | 14.3 ± 0.1 (≈ 43.7 µM) | 218.4±21.2 | 3.2 ± 0.3 | 63 to 65 | 3.91 ± 0.02 | 95.7±14.7 | 7.4 ± 1.2 | 1.7 ± 0.08 |  |  |  |  |  |  | 
CC(=O)NCCN(c1ccc(F)cc1)c1cccc(C(F)F)c1 [Compound 10, N ‐(2‐{[3‐(Difluoromethyl)phenyl](4‐fluorophenyl)amino}ethyl)acetamide] | > 100 | 54.9 ± 1.1 (≈ 170 µM) | 40.6 ± 0.1 (≈ 126 µM) | 58.0±8.2 | 12.2 ± 1.5 | 76 to 77 | 3.45 ± 0.02 | 12.8±1.3 | 55.4 ± 6.8 | 35 ± 0.35 |  |  |  |  |  |  | 
COc1cccc(N(CCNC(C)=O)c2cccc(CO)c2)c1 [Compound 14, N ‐{2‐[(3‐Hydroxymethylphenyl)(3‐methoxyphenyl)amino]ethyl} acetamide] | > 100 | > 1000 | > 1000 | 241.4±28.5 | 2.9 ± 0.3 |  | 2.04 ± 0.01 | 10.8±1.2 | 64.9 ± 6.9 | 3.5 ± 0.05 | 6.8 ± 0.3 | MT2‐selective partial agonist | 71 ± 2 | 53 ± 0.5 | 32 ± 3 | very low | increase of rat microsomal stability compared to UCM765 ([3]; rat liver microsomes, versus UCM765): approximately 1.5 fold; increase of human microsomal stability compared to UCM765 ([5]; human liver microsomes, versus UCM765): approximately 1.5 fold; Vd [9, 12]: 0.9 ± 0.2 L/kg; bioavailability ([9]; Sprague-Dawley): 0.5%; AUC [9, 12]: 1110 ng·h/mL; Cmax [9, 12]: 2760 ± 479 ng/mL; clearance [9, 12]: 76.2 ± 10.3 mL/min/kg; half-life [9, 12]: 11.5 ± 1 min; AUC [9, 13]: 43.8 ng·h/mL; Cmax [9, 13]: 75.6 ± 39.7 ng/mL; half-life [9, 13]: 19.8 ± 1.9 min
COc1ccc(Br)c(N(C)CCNC(C)=O)c1 [Compound 19, N ‐{2‐[(2‐Bromo‐5‐methoxyphenyl)methylamino]ethyl}acetamide] | 18 ± 0.7 | > 1000 | 823 ± 34.7 (≈ 2730 µM) | 39.6±3.1 | 17.6 ± 1.5 |  |  | 8.9±1.4 | 78.5 ± 12.2 | 2.4 ± 0.1 | 0.83 ± 0.05 | full agonist | 93 ± 2 | 4.4 ± 0.2 | 94 ± 4 | moderate | logD ([4]; n-octanol/water (50 mM MOPS buffer)): 1.85 ± 0.01; Vd [9, 14]: 0.7 ± 0.1 L/kg; bioavailability ([9]; Sprague-Dawley CD): 3.6%; AUC [9, 14]: 1100 ng·h/mL; Cmax [9, 14]: 2970 ± 384 ng/mL; clearance [9, 14]: 76.4 ± 8.8 mL/min/kg; half-life [9, 14]: 13.5 ± 0.3 min; AUC [9, 15]: 319 ng·h/mL; Cmax [9, 15]: 456 ± 178 ng/mL; half-life [9, 15]: 26.2 ± 0.9 min
